Source: US20050019765A1, “Methods for treating disorders of the nervous and reproductive systems” (priority 2001, published 2005)

Tested on: murine sperm
Experiment: chlortetracycline assay for capacitation of murine sperm in vitro
Type: cell-based
Text: ABCA1 generates HDL by transferring cholesterol onto apoprotein-A1 (apoA1) in a process known as cholesterol efflux, which is also an essential component of male fertility. Sperm are made in the testes and released into the epididymis, where they await ejaculation into the female reproductive tract. Although differentiated, epididymal sperm are not capable of fertilization and must first complete their maturation in the female reproductive tract. This maturation process is known as capacitation and is known to require efflux of cholesterol from the sperm plasma membrane. How this occurs at the molecular level is not well understood. The present invention relies in part on the discovery that ABCA1 is highly expressed in the testes (being present in Sertoli and Leydig cells as well as in differentiating spermatids). […] In accordance with the present invention, ABCA1 is also present in epididymal sperm where it can act to transport cholesterol during capacitation. In vivo, follicular HDL is an endogenous cholesterol acceptor for capacitating sperm, and HDL can stimulate capacitation in vitro. In accordance with the present invention, because cholesterol efflux through ABCA1 is dependent upon apoA1 the ability of apoA1 to stimulate capacitation of murine sperm in vitro was tested using a chlortetracycline assay.

de-lipidated apoA1: apoprotein-A1, the acceptor onto which ABCA1 transfers cholesterol in cholesterol efflux
ability to stimulate capacitation of murine sperm: capacitates sperm in a dose-dependent manner
